Reference: patent publication US10660909B2, “Method for treating cancer using chemokine antagonists” (Syntrix Biosystems Inc., priority 2016, dated 2020)

What was measured:
[1] = tested on: MDSCs isolated from blood of AOM/DSS-treated BALBc mice; assay: GROα-mediated MDSC migration (transwell, flow cytometry count); type: cell-based, mouse; conditions: SX-682 0.1, 1 and 10 μM; GROα (CXCL1) 100 ng/ml; 12 hours; FIG. 2
Method: Using the of method of Katoh, 2013, Cancer Cell, 24:631-44 (herein incorporated by reference), to induce and isolate MDSCs, male BALBc mice were given a single intraperitoneal injection of azoxymethane (AOM, 10 mg/kg). Seven days later, these mice were given 4 cycles of water and water containing 1.25% dextran sulfate sodium (DSS). One cycle consisted of providing mice with regular drinking water for 7 days, followed by 1.25% aqueous DSS for 7 days, followed by regular drinking water for 7 days. MDSCs were isolated from femurs and blood of AOM/DSS-treated BALBc mice using the Myeloid-Derived Suppressor Cell Isolation Kit (Miltenyi Biotec) after lysis of red blood cells (RBC) according to the manufacturer's instructions. GROα (CXCL1) was placed in the bottom chamber of a 24-well plate at a concentration of 100 ng/ml. MDSCs isolated from blood of AOM/DSS-treated BALBc mice were seeded at a density of 1×10^6/well in the upper chamber (3 m, BD Falcon). After incubation for 12 hours, migrated cells were quantified by flow cytometry using CountBright Absolute Counting Beads (Molecular Probes). […] The test concentrations of SX-682 were 0.1, 1 and 10 μM, and the DMSO concentration was ≤1%.

[2] = tested on: C3Tag mouse model of breast cancer; assay: C3Tag mouse model of breast cancer; type: in vivo; conditions: C3Tag mice; for median survival: SX-682 ~10 mg/day/mouse oral, CP 50 mg/kg ip weekly, up to 60 days, vehicle 18 days, FIG. 6
Description: The C31-T-antigen (C3Tag) mouse model is a validated model of human triple-negative basal cell breast cancer as shown by gene expression analysis (Maroulakou, 1994, Proc Natl Acad Sci, 91:11236-40, herein incorporated by reference). The expressed large T-antigen binds and inactivates the RB and p53 tumor suppressor genes, explaining why this model faithfully recapitulates human basal breast cancer, which also harbors RB and p53 inactivation. This model also has frequent K-Ras amplification and infrequent Ras mutations. Treatment regimens were started following tumor manifestation. SX-682 was given orally via medicated feed, at an approximate dose of 10 mg/day/mouse. Carboplatin (CP) was administered once weekly via intraperitoneal injection at a dose of 50 mg/kg.

[3] = tested on: 60 human tumor cell line panel; assay: NCI 60 human tumor cell line panel, SRB growth inhibition; type: cell-based
Method: The chemokine CXCL8 and its receptors CXCR1 and CXCR2 have been identified as important mediators of cellular proliferation for a number of tumor cell types. To validate the relationship between CXCR1 and CXCR2 receptor antagonism and inhibition of tumor cell proliferation, SX-682 was evaluated against the 60 human tumor cell line panel at five concentration levels (0.01, 0.1, 1, 10, 100 μM) as performed by the Developmental Therapeutics Program at the National Cancer Institute (Shoemaker, 2006, Nat Rev Cancer, 6:813-23).
The human tumor cell lines of the cancer screening panel were grown in RPMI 1640 medium containing 5% fetal bovine serum and 2 mM L-glutamine. Cells were inoculated into 96 well microtiter plates in 100 μL at plating densities ranging from 5,000 to 40,000 cells/well depending on the doubling time of individual cell lines. After cell inoculation, the microtiter plates were incubated at 37° C., 5% CO2, 95% air and 100% relative humidity for 24 h prior to addition of SX-682.
After 24 h, two plates of each cell line are fixed in situ with TCA, to represent a measurement of the cell population for each cell line at the time of drug addition (Tz). SX-682 was solubilized in dimethyl sulfoxide at 400-fold the desired final maximum test concentration and stored frozen prior to use. At the time of SX-682 addition, an aliquot of frozen concentrate was thawed and diluted to twice the desired final maximum test concentration with complete medium containing 50 μg/ml gentamicin. Additional four, 10-fold or ½ log serial dilutions are made to provide a total of five drug concentrations plus control. Aliquots of 100 μl of these different drug dilutions were added to the appropriate microtiter wells already containing 100 μl of medium, resulting in the required final drug concentrations.
Following drug addition, the plates were incubated for an additional 48 h at 37° C., 5% CO2, 95% air, and 100% relative humidity. For adherent cells, the assay was terminated by the addition of cold TCA. Cells were fixed in situ by the gentle addition of 50 μl of cold 50% (w/v) TCA (final concentration, 10% TCA) and incubated for 60 minutes at 4° C. The supernatant was discarded, and the plates were washed five times with tap water and air dried. Sulforhodamine B (SRB) solution (100 μl) at 0.4% (w/v) in 1% acetic acid was added to each well, and plates were incubated for 10 minutes at room temperature. After staining, unbound dye was removed by washing five times with 1% acetic acid and the plates were air dried. Bound stain was subsequently solubilized with 10 mM TRIS, and the absorbance was read on an automated plate reader at a wavelength of 515 nm. For suspension cells, the methodology is the same except that the assay was terminated by fixing settled cells at the bottom of the wells by gently adding 50 μl of 80% TCA (final concentration, […]). Using the seven absorbance measurements (time zero, (Tz), control growth, (C), and test growth in the presence of drug at the five concentration levels (Ti)), the percentage growth was calculated at each of the drug concentrations levels. Percentage growth inhibition was calculated as: (Ti−Tz)/(C−Tz)×100 for concentrations for which Ti>/=Tz (Ti−Tz)/Tz×100 for concentrations for which Ti<Tz.
Three dose response parameters were calculated for each experimental agent. […] The drug concentration resulting in total growth inhibition (TGI) is calculated from Ti=Tz. The LC50 (concentration of drug resulting in a 50% reduction in the measured protein at the end of the drug treatment as compared to that at the beginning) indicating a net loss of cells following treatment is calculated from (Ti−Tz)/Tz×100=−50. Values are calculated for each of these three parameters if the level of activity is reached; however, if the effect is not reached or is exceeded, the value for that parameter is expressed as greater or less than the maximum or minimum concentration tested.

[4] = tested on: Pten^pc−/−p53^pc−/−Smad4^pc−/− mouse prostate tumors; assay: Pten/p53/Smad4 triple knockout mouse model of castration resistant prostate cancer; type: in vivo; conditions: SX-682 50 mg/kg b.i.d. oral gavage; ICB 200 μg each anti-PD1 and anti-CTLA4 3×/week; 4-6 weeks; FIG. 12
Method: The genetically engineered Pten^pc−/−p53^pc−/−Smad4^pc−/− mouse is a prostate-specific PB promoter-driven (PB-Cre4) conditional triple knockout model (i.e., prostate-specific deletion of all three tumor suppressors, Pten, p53 and Smad4 occurs in the ‘prostate cancer’ or ‘pc’). […] SX-682 was used as a spray dried dispersion (Formulation Example 1), and was administered to mice via oral gavage as a suspension in 0.5% aq. methylcellulose. Treatment was continued for 4-6 weeks and prostate weights measured to determine tumor burden. […] Mean±SE.

[5] = tested on: TRIA mouse model of melanoma; assay: TRIA mouse model of melanoma; type: in vivo; conditions: TRIA mice; SX-682 oral via medicated feed ~10 mg/day/mouse; CP 50 mg/kg ip once weekly; FIG. 7 and 8
Method: The Tyrosine-Hras/Ink/Arf null (TRIA) is a validated mouse model of melanoma features an immuno-competent autochthonous tumor; Ras events are in >70% of all melanomas, and ˜50% lose the INK4a/ARF locus which, with B-RAF mutations, is the most common lesion of this cancer (Sharpless, 2016, Cancer Cell 29:832-45). Treatment regimens were started following tumor manifestation. SX-682 was given orally via medicated feed, at an approximate dose of 10 mg/day/mouse. Carboplatin (CP) was administered once weekly via intraperitoneal injection at a dose of 50 mg/kg.

[6] = tested on: Lewis lung carcinoma (LLC); assay: LLC syngeneic mouse model of lung cancer; type: in vivo; conditions: LLC mice; SX-682 50 mg/kg twice daily oral; anti-PD-1 100 μg twice weekly ip; treatment from day 18; N=5; FIG. 10
Method: The Lewis lung carcinoma (LLC) mouse model (Kellar, 2015, Biomed Res Int, 2015:621324, herein incorporated by reference) was used to evaluate the effect of SX-682 alone and in combination with anti-PD-1 antibody. LLC mouse […] cells were cultured, then mice were injected with 0.5×10^6 LLC cells on day 0, and on day 18 treatment was initiated. Mice were treated with vehicle (control), SX-682 alone (50 mg/kg twice daily, oral), anti-PD-1 alone (100 μg twice weekly, ip), or SX-682 in combination with anti-PD-1 (N=5 per cohort). SX-682 was used as a spray dried dispersion (Formulation Example 1), and was administered to mice via oral gavage as a suspension in 0.5% aq. methylcellulose. The results of this experiment can be seen in FIG. 10 and FIG. 11.

[7] = tested on: T11 mouse model of breast cancer; assay: T11 mouse model of breast cancer; type: in vivo; conditions: T11 mice; SX-682 oral via medicated feed ~10 mg/day/mouse; CP 50 mg/kg ip once weekly; 1-2 weeks; N=7; P<0.0001; FIG. 4
Description: The T11 model is a validated mouse model of breast cancer, which derives from the serial orthotopic transplantation of a murine breast tumor derived from a p53-null mouse into a syngeneic p53 competent recipient, and features sporadic, somatic K-Ras mutation (Herschkowitz, 2012, Proc Natl Acad Sci, 109:2778-83, herein incorporated by reference). Tumors from the T11 model display an RNA expression pattern characteristic of the human claudin-low disease, and are extremely aggressive, with the majority of untreated animals surviving less than 21 days from the time of enrollment in the therapy studies. Treatment regimens were started following tumor manifestation. SX-682 was given orally via medicated feed, at an approximate dose of 10 mg/day/mouse. In brief, the medicated feed was prepared by Research Diets (New Brunswick, N.J.) by incorporating 15.2 grams of SX-682 spray dried dispersion (as prepared in Formulation Example 1) into 1042 grams of standard rodent diet with 10% kcals from fat. The medicated feed was formed into pellets. Carboplatin (CP) was administered once weekly via intraperitoneal injection at a dose of 50 mg/kg. […] Mean±SE. *** P<0.0001 (linear regression).

[8] = tested on: B16-F10 mouse melanoma cells; assay: B16-F10 syngeneic mouse model of melanoma; type: in vivo; conditions: B16-F10 mice; SX-682 50 mg/kg twice daily oral; anti-PD-1 100 μg twice weekly ip; treatment from day 18; N=4-5; FIG. 9
Method: The B16-F10 mouse model is a validated model of melanoma, Overwijk, 2001, Curr Protoc Immunol, Chapter 20: Units 20-21 (herein incorporated by reference). It was used to evaluate the effect of SX-682 alone and in combination with anti-PD1 antibody. B16-F10 mouse melanoma cells were cultured, then mice were injected with 0.5×10^6 B16-F10 cells on day 0, and treatment was initiated on day 18. Mice were treated with vehicle (control), SX-682 alone (50 mg/kg twice daily, oral), anti-PD-1 alone (100 μg twice weekly, ip), or SX-682 in combination with anti-PD-1 (N=4-5 per cohort). SX-682 was used as a spray dried dispersion (Formulation Example 1), and was administered to mice via oral gavage as a suspension in 0.5% aq methylcellulose. […] Data and error bars are the mean±SE.

| Compound | inhibition of GROα-mediated MDSC migration [1] | tumor growth (tumor volume) ([2]; SX-682 oral via medicated feed ~10 mg/day/mouse, CP 50 mg/kg ip once weekly, 4-6 weeks, N=10-12, FIG. 5) | median survival [2] [days] | proliferation of human tumor cells ([3]; 60 cell lines, 0.01, 0.1, 1, 10, 100 μM, 48 h, FIG. 3A-3I) | inhibition of tumor cell proliferation, renal cancer cell lines ([3]; 786-0, CAK-1, TK-10, RXF 393, UO-31, ACHN, SN12C, FIG. 3G) | inhibition of tumor cell proliferation, non-small cell lung cancer cell lines ([3]; A549, H226, H460, H23, H522, H322M, HOP-62, HOP-92, FIG. 3B) | inhibition of tumor cell proliferation, leukemia cell lines ([3]; CCRF-CEM, MOLT-4, HL-60, RPMI-8226, K-562, SR, 10^−8 to 10^−4 M, FIG. 3A) | inhibition of tumor cell proliferation, colon cancer cell lines ([3]; COLO 205, HCT-15, HCC-2998, KM12, HCT-116, SW-620, FIG. 3C) | inhibition of tumor cell proliferation, ovarian cancer cell lines ([3]; IBROV1, OVCAR-8, OVCAR-3, NCI/ADR-RES, OVCAR-5, SK-OV-3, FIG. 3F) | inhibition of tumor cell proliferation, melanoma cell lines ([3]; LOX IMVI, MDA-MB-435, SK-MEL-5, MALME-3M, SK-MEL-2, UACC-257, M14, SK-MEL-28, UACC-62, FIG. 3E) | inhibition of tumor cell proliferation, breast cancer cell lines ([3]; MCF7, BT-549, MDA-MB-231, T-47D, HS 578T, MDA-MB-468, FIG. 3I) | inhibition of tumor cell proliferation, prostate cancer cell lines ([3]; PC-3, DU-145, FIG. 3H) | inhibition of tumor cell proliferation, CNS cancer cell lines ([3]; SF-268, SNB-19, SF-295, SNB-75, SF-539, FIG. 3D) | tumor burden (prostate weight) [4] | tumor growth (tumor volume) [5] | tumor growth (tumor area) [6] | tumor growth (tumor volume) [7] | tumor growth (tumor area) [8] |
| --- | --- | --- | --- | --- | --- | --- | --- | --- | --- | --- | --- | --- | --- | --- | --- | --- | --- | --- |
| O=C(Nc1ccc(F)cc1)c1cnc(SCc2cc(OC(F)(F)F)ccc2B(O)O)nc1 [SX-682] | effectively inhibit GROα-mediated MDSC migration in a dose-dependent manner | significantly reduced tumor growth as compared to untreated controls | 28 | directly affect the proliferation of human tumor cells | direct inhibition of tumor cell proliferation | direct inhibition of tumor cell proliferation | direct inhibition of tumor cell proliferation | direct inhibition of tumor cell proliferation | direct inhibition of tumor cell proliferation | direct inhibition of tumor cell proliferation | direct inhibition of tumor cell proliferation | direct inhibition of tumor cell proliferation | direct inhibition of tumor cell proliferation | inhibited prostate cancer | significantly slowed tumor growth comparable to CP alone | significantly slowed tumor growth | effective therapy for breast cancer | significantly slowed tumor growth |
| N.N.O=C([O-])C1(C(=O)[O-])CCC1.[Pt+2] [carboplatin, reference compound] |  |  | 28 |  |  |  |  |  |  |  |  |  |  |  |  |  |  |  |
